Data taken from patent US11053204B2, “Pyrimidinyloxy benzene derivatives as herbicides” (FMC Corporation, priority 2015, dated 2021).

Assays:
Experiment in all cases: Test C preemergence, plant response rating
Type in all cases: in vivo
Settings in all cases: Preemergence
[1] = test system: waterhemp (common waterhemp, Amaranthus rudis)
Summary of the method: (§1)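 Both timings shared one formulation, a non-phytotoxic solvent mixture with surfactant, and a greenhouse period of 13 to 15 d. Preemergence used seeded loam/sand or silt loam soil, postemergence used 2 to 18 cm plants; visual ratings ran from 0 (no effect) to 100 (complete control).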

corn (Zea mays) = test system: corn (Zea mays)
Summary of the method: as §1

[2] = test system: oilseed rape (Brassica napus)
Summary of the method: as §1

soybean (Glycine max) = test system: soybean (Glycine max)
Summary of the method: as §1

[3] = test system: blackgrass (Alopecurus myosuroides)
Summary of the method: as §1

[4] = test system: foxtail, giant (giant foxtail, Setaria faberii)
Summary of the method: as §1

[5] = test system: crabgrass, large (large crabgrass, Digitaria sanguinalis)
Summary of the method: as §1

[6] = test system: lambsquarters (Chenopodium album)
Summary of the method: as §1

[7] = test system: ryegrass, Italian (Italian ryegrass, Lolium multiflorum)
Summary of the method: as §1

[8] = test system: velvetleaf (Abutilon theophrasti)
Summary of the method: as §1

[9] = test system: wheat (winter wheat, Triticum aestivum)
Summary of the method: as §1

[10] = test system: nutsedge, yellow (yellow nutsedge, Cyperus esculentus)
Summary of the method: as §1

[11] = test system: morningglory (Ipomoea coccinea)
Summary of the method: as §1

SMILES: N#Cc1cccc(Oc2ncc(Cl)cn2)c1C(=O)OCCC(F)(F)F [Compound 30]
- Plant response rating, Waterhemp ([1]; 125 g ai/ha, scale of 0 to 100): 100
- Plant response rating, Waterhemp ([1]; 16 g ai/ha, scale 0 to 100): 85
- Plant response rating, Waterhemp ([1]; 31 g ai/ha, scale 0 to 100): 100
- Plant response rating, Waterhemp ([1]; 62 g ai/ha, scale 0 to 100): 100
- Plant response rating, Corn (corn (Zea mays); 62 g ai/ha, scale of 0 to 100): 0
- Plant response rating, Corn (corn (Zea mays); 125 g ai/ha, scale of 0 to 100): 5
- Plant response rating, Corn (corn (Zea mays); 16 g ai/ha, scale 0 to 100): 0
- Plant response rating, Corn (corn (Zea mays); 31 g ai/ha, scale 0 to 100): 0
- Plant response rating, Oilseed Rape ([2]; 125 g ai/ha, scale of 0 to 100): 100
- Plant response rating, Oilseed Rape ([2]; 16 g ai/ha, scale 0 to 100): 10
- Plant response rating, Oilseed Rape ([2]; 31 g ai/ha, scale 0 to 100): 55
- Plant response rating, Oilseed Rape ([2]; 62 g ai/ha, scale 0 to 100): 100
- Plant response rating, Soybean (soybean (Glycine max); 125 g ai/ha, scale of 0 to 100): 60
- Plant response rating, Soybean (soybean (Glycine max); 16 g ai/ha, scale 0 to 100): 0
- Plant response rating, Soybean (soybean (Glycine max); 62 g ai/ha, scale 0 to 100): 10
- Plant response rating, Blackgrass ([3]; 62 g ai/ha, scale of 0 to 100): 0
- Plant response rating, Blackgrass ([3]; 125 g ai/ha, scale of 0 to 100): 0
- Plant response rating, Blackgrass ([3]; 16 g ai/ha, scale 0 to 100): 0
- Plant response rating, Blackgrass ([3]; 31 g ai/ha, scale 0 to 100): 0
- Plant response rating, Foxtail, Giant ([4]; 62 g ai/ha, scale of 0 to 100): 65
- Plant response rating, Foxtail, Giant ([4]; 125 g ai/ha, scale of 0 to 100): 75
- Plant response rating, Foxtail, Giant ([4]; 16 g ai/ha, scale 0 to 100): 5
- Plant response rating, Foxtail, Giant ([4]; 31 g ai/ha, scale 0 to 100): 30
- Plant response rating, Crabgrass, Large ([5]; 62 g ai/ha, scale of 0 to 100): 80
- Plant response rating, Crabgrass, Large ([5]; 125 g ai/ha, scale of 0 to 100): 98
- Plant response rating, Crabgrass, Large ([5]; 16 g ai/ha, scale 0 to 100): 0
- Plant response rating, Crabgrass, Large ([5]; 31 g ai/ha, scale 0 to 100): 35
- Plant response rating, Lambsquarters ([6]; 125 g ai/ha, scale of 0 to 100): 55
- Plant response rating, Lambsquarters ([6]; 16 g ai/ha, scale 0 to 100): 10
- Plant response rating, Lambsquarters ([6]; 31 g ai/ha, scale 0 to 100): 25
- Plant response rating, Lambsquarters ([6]; 62 g ai/ha, scale 0 to 100): 30
- Plant response rating, Ryegrass, Italian ([7]; 125 g ai/ha, scale of 0 to 100): 5
- Plant response rating, Ryegrass, Italian ([7]; 16 g ai/ha, scale 0 to 100): 0
- Plant response rating, Ryegrass, Italian ([7]; 31 g ai/ha, scale 0 to 100): 0
- Plant response rating, Ryegrass, Italian ([7]; 62 g ai/ha, scale 0 to 100): 0
- Plant response rating, Velvetleaf ([8]; 125 g ai/ha, scale of 0 to 100): 40
- Plant response rating, Velvetleaf ([8]; 16 g ai/ha, scale 0 to 100): 0
- Plant response rating, Velvetleaf ([8]; 31 g ai/ha, scale 0 to 100): 0
- Plant response rating, Velvetleaf ([8]; 62 g ai/ha, scale 0 to 100): 10
- Plant response rating, Wheat ([9]; 125 g ai/ha, scale of 0 to 100): 10
- Plant response rating, Wheat ([9]; 16 g ai/ha, scale 0 to 100): 0
- Plant response rating, Wheat ([9]; 31 g ai/ha, scale 0 to 100): 0
- Plant response rating, Wheat ([9]; 62 g ai/ha, scale 0 to 100): 0
- Plant response rating, Nutsedge, Yellow ([10]; 125 g ai/ha, scale of 0 to 100): 5
- Plant response rating, Nutsedge, Yellow ([10]; 16 g ai/ha, scale 0 to 100): 0
- Plant response rating, Nutsedge, Yellow ([10]; 31 g ai/ha, scale 0 to 100): 0
- Plant response rating, Nutsedge, Yellow ([10]; 62 g ai/ha, scale 0 to 100): 0
- Plant response rating, Morningglory ([11]; 125 g ai/ha, scale of 0 to 100): 35
- Plant response rating, Morningglory ([11]; 16 g ai/ha, scale 0 to 100): 0
- Plant response rating, Morningglory ([11]; 31 g ai/ha, scale 0 to 100): 10
- Plant response rating, Morningglory ([11]; 62 g ai/ha, scale 0 to 100): 10
